Results taken from patent US10538554B2, “Peptides and uses therefor as antiviral agents” (priority 2015, dated 2020).
Bridge positions count the residues as written; N and C are the ends. Square brackets hold non-standard residues; d marks the D form. Peptide text beside a SMILES is read from it.

Assays:
[1] = system: H9N2 A/Iran/16/2000; conditions: 48 h, 500 μM
[2] = system: H1N1 A1/Malaysia/302/1954; conditions: A1/Malaysia/302/1954, 48 h, 500 μM
[3] = system: H3N8 A/Miami/2/63; conditions: A/Miami/2/63, 48 h, 500 μM

Row | SMILES | % inhibition H9N2 [1] [%] | % inhibition H1N1 [2] [%] | % inhibition H3N8 [3] [%]
1 | CC[C@@H](C)[C@H]1NC(=O)[C@@H](Cc2ccccc2)NC(=O)[C@@H](CCCNC(=N)N)NC(=O)[C@@H](CO)NC(=O)[C@@H](Cc2ccccc2)NC(=O)[C@@H]([C@H](C)O)NC(=O)[C@H](NC(=O)[C@@H](CCCCN)NC(=O)[C@@H](CCCCN)NC(=O)[C@@H](CCCNC(=N)N)NC(=O)[C@H](N)CCCNC(=N)N)CSSC[C@H](C(=O)O)NC(=O)[C@@H](CC(N)=O)NC1=O [PSP II A5, H-rrkkctfsrfinc-OH] (H-[dR][dR][dK][dK][dC][dT][dF][dS][dR][dF][dI][dN][dC]-OH; disulfide 5-13) | 50 | 82.8 | 100
2 | CC[C@@H](C)[C@H]1NC(=O)[C@@H](Cc2ccccc2)NC(=O)[C@@H](CCCNC(=N)N)NC(=O)[C@@H](CO)NC(=O)[C@@H](CO)NC(=O)[C@@H]([C@H](C)O)NC(=O)[C@H](NC(=O)[C@@H](CCCCN)NC(=O)[C@@H](CCCCN)NC(=O)[C@@H](CCCNC(=N)N)NC(=O)[C@H](N)CCCNC(=N)N)CSSC[C@H](C(=O)O)NC(=O)[C@@H](CC(N)=O)NC1=O [PSP II A16, H-rrkkctssrfinc-OH] (H-[dR][dR][dK][dK][dC][dT][dS][dS][dR][dF][dI][dN][dC]-OH; disulfide 5-13) | 90 | 61.5 | 61.8
3 | CC[C@@H](C)[C@H]1NC(=O)[C@@H](Cc2ccccc2)NC(=O)[C@@H](CCCNC(=N)N)NC(=O)[C@@H](CO)NC(=O)[C@@H](Cc2c[nH]c3ccccc23)NC(=O)[C@@H]([C@H](C)O)NC(=O)[C@H](NC(=O)[C@@H](CCCCN)NC(=O)[C@@H](CCCCN)NC(=O)[C@@H](CCCNC(=N)N)NC(=O)[C@H](N)CCCNC(=N)N)CSSC[C@H](C(=O)O)NC(=O)[C@@H](CC(N)=O)NC1=O [PSP II A19, H-rrkkctwsrfinc-OH] (H-[dR][dR][dK][dK][dC][dT][dW][dS][dR][dF][dI][dN][dC]-OH; disulfide 5-13) | 100 | 88.4 | 82.4
4 | CC[C@@H](C)[C@H]1NC(=O)[C@@H](Cc2ccccc2)NC(=O)[C@@H](CCCNC(=N)N)NC(=O)[C@@H](CO)NC(=O)[C@@H](CCCCN)NC(=O)[C@@H]([C@H](C)O)NC(=O)[C@H](NC(=O)[C@@H](CCCCN)NC(=O)[C@@H](CCCCN)NC(=O)[C@@H](CCCNC(=N)N)NC(=O)[C@H](N)CCCNC(=N)N)CSSC[C@H](C(=O)O)NC(=O)[C@@H](CC(N)=O)NC1=O [PSP II A9, H-rrkkctksrfinc-OH] (H-[dR][dR][dK][dK][dC][dT][dK][dS][dR][dF][dI][dN][dC]-OH; disulfide 5-13) | 50 | 81 | 77.8
5 | C[C@H](O)[C@H]1NC(=O)[C@H](N)CSSC[C@H](C(=O)O)NC(=O)[C@@H](CC(N)=O)NC(=O)[C@@H](CC(N)=O)NC(=O)[C@@H](Cc2ccccc2)NC(=O)[C@@H](CCCNC(=N)N)NC(=O)[C@@H](CO)NC(=O)[C@@H](CCCCN)NC1=O [PSP 12, H-ctksrfnnc-OH] (H-[dC][dT][dK][dS][dR][dF][dN][dN][dC]-OH; disulfide 1-9) | 27.3 | 32.7 | 70.1
6 | CC[C@@H](C)[C@H]1NC(=O)[C@@H](Cc2ccccc2)NC(=O)[C@@H](CCCNC(=N)N)NC(=O)[C@@H](CO)NC(=O)[C@@H](CCC(N)=O)NC(=O)[C@@H]([C@H](C)O)NC(=O)[C@H](NC(=O)[C@@H](CCCCN)NC(=O)[C@@H](CCCCN)NC(=O)[C@@H](CCCNC(=N)N)NC(=O)[C@H](N)CCCNC(=N)N)CSSC[C@H](C(=O)O)NC(=O)[C@@H](CC(N)=O)NC1=O [PSP II A14, H-rrkkctqsrfinc-OH] (H-[dR][dR][dK][dK][dC][dT][dQ][dS][dR][dF][dI][dN][dC]-OH; disulfide 5-13) | 80 | 73 | 85
7 | CC[C@@H](C)[C@H]1NC(=O)[C@@H](Cc2ccccc2)NC(=O)[C@@H](CCCNC(=N)N)NC(=O)[C@@H](CO)NC(=O)[C@H]2CCCN2C(=O)[C@@H]([C@H](C)O)NC(=O)[C@H](NC(=O)[C@@H](CCCCN)NC(=O)[C@@H](CCCCN)NC(=O)[C@@H](CCCNC(=N)N)NC(=O)[C@H](N)CCCNC(=N)N)CSSC[C@H](C(=O)O)NC(=O)[C@@H](CC(N)=O)NC1=O [PSP II A13, H-rrkkctpsrfinc-OH] (H-[dR][dR][dK][dK][dC][dT][dP][dS][dR][dF][dI][dN][dC]-OH; disulfide 5-13) | 70 | 86.5 | 97
8 | CC[C@@H](C)[C@H]1NC(=O)[C@@H](Cc2ccccc2)NC(=O)[C@@H](CCCNC(=N)N)NC(=O)[C@@H](CO)NC(=O)[C@@H](Cc2c[nH]cn2)NC(=O)[C@@H]([C@H](C)O)NC(=O)[C@H](NC(=O)[C@@H](CCCCN)NC(=O)[C@@H](CCCCN)NC(=O)[C@@H](CCCNC(=N)N)NC(=O)[C@H](N)CCCNC(=N)N)CSSC[C@H](C(=O)O)NC(=O)[C@@H](CC(N)=O)NC1=O [PSP II A7, H-rrkkcthsrfinc-OH] (H-[dR][dR][dK][dK][dC][dT][dH][dS][dR][dF][dI][dN][dC]-OH; disulfide 5-13) | 50 | 71 | 81.5
9 | CC[C@@H](C)[C@H]1NC(=O)[C@@H](Cc2ccccc2)NC(=O)[C@@H](CCCNC(=N)N)NC(=O)[C@@H](CO)NC(=O)[C@@H](C)NC(=O)[C@@H]([C@H](C)O)NC(=O)[C@H](NC(=O)[C@@H](CCCCN)NC(=O)[C@@H](CCCCN)NC(=O)[C@@H](CCCNC(=N)N)NC(=O)[C@H](N)CCCNC(=N)N)CSSC[C@H](C(=O)O)NC(=O)[C@@H](CC(N)=O)NC1=O [PSP II A1, H-rrkkctasrfinc-OH] (H-[dR][dR][dK][dK][dC][dT][dA][dS][dR][dF][dI][dN][dC]-OH; disulfide 5-13) | 40 |  | 25.9
10 | CC[C@@H](C)[C@H]1NC(=O)[C@@H](Cc2ccccc2)NC(=O)[C@@H](CCCNC(=N)N)NC(=O)[C@@H](CO)NC(=O)[C@@H](CCSC)NC(=O)[C@@H]([C@H](C)O)NC(=O)[C@H](NC(=O)[C@@H](CCCCN)NC(=O)[C@@H](CCCCN)NC(=O)[C@@H](CCCNC(=N)N)NC(=O)[C@H](N)CCCNC(=N)N)CSSC[C@H](C(=O)O)NC(=O)[C@@H](CC(N)=O)NC1=O [PSP II A11, H-rrkkctmsrfinc-OH] (H-[dR][dR][dK][dK][dC][dT][dM][dS][dR][dF][dI][dN][dC]-OH; disulfide 5-13) | 40 | 65.4 | 76.5
11 | CC[C@@H](C)[C@H]1NC(=O)[C@@H](Cc2ccccc2)NC(=O)[C@@H](CCCNC(=N)N)NC(=O)[C@@H](CO)NC(=O)[C@@H](C(C)C)NC(=O)[C@@H]([C@H](C)O)NC(=O)[C@H](NC(=O)[C@@H](CCCCN)NC(=O)[C@@H](CCCCN)NC(=O)[C@@H](CCCNC(=N)N)NC(=O)[C@H](N)CCCNC(=N)N)CSSC[C@H](C(=O)O)NC(=O)[C@@H](CC(N)=O)NC1=O [PSP II A18, H-rrkkctvsrfinc-OH] (H-[dR][dR][dK][dK][dC][dT][dV][dS][dR][dF][dI][dN][dC]-OH; disulfide 5-13) | 70 | 42.3 | 47
